Test results published in PubChem BioAssay (NCI).
“And” between values parts separate entries of the source, which are not always exact repeats. Identical values can stand only once.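 Dose response: 5 concentrations. Exposure: 48 h. Format: 96-well plates. Endpoint: linear interpolation; highest concentration if not reached. GI50: concentration for 50% inhibition of growth. The concentration for full growth arrest is given as TGI.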

Assays:
Test in all cases: NCI tumour cell line growth inhibition, 48 h
OVCAR-4 ovarian = system: OVCAR-4 ovarian
SN12C renal = system: SN12C renal
786-0 renal = system: 786-0 renal
HCT-116 colon = system: HCT-116 colon
UACC-62 melanoma = system: UACC-62 melanoma
ACHN renal = system: ACHN renal
PC-3 prostate = system: PC-3 prostate
HS 578T breast = system: HS 578T breast
OVCAR-8 ovarian = system: OVCAR-8 ovarian
U251 CNS = system: U251 CNS
SK-MEL-2 melanoma = system: SK-MEL-2 melanoma
SW-620 colon = system: SW-620 colon
HCT-15 colon = system: HCT-15 colon
OVCAR-3 ovarian = system: OVCAR-3 ovarian
A549 NSCLC = system: A549 NSCLC
SK-OV-3 ovarian = system: SK-OV-3 ovarian
MDA-MB-231 breast = system: MDA-MB-231 breast
TK-10 renal = system: TK-10 renal
UACC-257 melanoma = system: UACC-257 melanoma
KM12 colon = system: KM12 colon
COLO 205 colon = system: COLO 205 colon
BT-549 breast = system: BT-549 breast
NCI-H522 lung = system: NCI-H522 lung
CCRF-CEM leukemia = system: CCRF-CEM leukemia
SF-268 CNS = system: SF-268 CNS
SNB-19 CNS = system: SNB-19 CNS
RXF 393 renal = system: RXF 393 renal
LOX IMVI melanoma = system: LOX IMVI melanoma
NCI-H460 lung = system: NCI-H460 lung
NCI-H23 lung = system: NCI-H23 lung
SR leukemia = system: SR leukemia
OVCAR-5 ovarian = system: OVCAR-5 ovarian
UO-31 renal = system: UO-31 renal
NCI/ADR-RES ovarian = system: NCI/ADR-RES ovarian
MDA-MB-435 = system: MDA-MB-435
T-47D breast = system: T-47D breast
HOP-62 NSCLC = system: HOP-62 NSCLC
MALME-3M melanoma = system: MALME-3M melanoma
SF-295 CNS = system: SF-295 CNS
SK-MEL-28 melanoma = system: SK-MEL-28 melanoma
M14 melanoma = system: M14 melanoma
HL-60(TB) leukemia = system: HL-60(TB) leukemia
HT29 colon = system: HT29 colon
A498 renal = system: A498 renal
RPMI-8226 leukemia = system: RPMI-8226 leukemia
SF-539 CNS = system: SF-539 CNS
HOP-92 NSCLC = system: HOP-92 NSCLC
CAKI-1 renal = system: CAKI-1 renal
DU-145 prostate = system: DU-145 prostate
EKVX NSCLC = system: EKVX NSCLC
IGROV1 ovarian = system: IGROV1 ovarian
MCF7 breast = system: MCF7 breast
K-562 leukemia = system: K-562 leukemia
NCI-H226 lung = system: NCI-H226 lung
HCC-2998 colon = system: HCC-2998 colon
MOLT-4 leukemia = system: MOLT-4 leukemia
SK-MEL-5 melanoma = system: SK-MEL-5 melanoma
SNB-75 CNS = system: SNB-75 CNS

With `Oc1c(Cl)cc(Cl)cc1Sc1cc(Cl)cc(Cl)c1O` the GI50 (OVCAR-4 ovarian) was 3.97 µM and 3.2 µM, the TGI (OVCAR-4 ovarian) was 14.3 µM and 11.7 µM and the GI50 (SN12C renal) was 3.13 µM and 3.14 µM. The TGI (SN12C renal) was 13 µM and 11.4 µM, the GI50 (786-0 renal) was 3.22 µM and 2.83 µM and the TGI (786-0 renal) was 10.4 µM and 7.85 µM. For the same compound, the GI50 (HCT-116 colon) was 2.87 µM and 2.44 µM, the TGI (HCT-116 colon) was 9 µM and 6.51 µM and the GI50 (UACC-62 melanoma) was 3.57 µM and 2.02 µM. The TGI (UACC-62 melanoma) was 14.1 µM and 5.44 µM, the GI50 (ACHN renal) was 2.92 µM and 3.27 µM and the TGI (ACHN renal) was 10.7 µM and 11.3 µM. For the same compound, the GI50 (PC-3 prostate) was 3.21 µM and 2.89 µM, the TGI (PC-3 prostate) was 10.5 µM and 12.9 µM and the GI50 (HS 578T breast) was 2.47 µM and 2.32 µM. The TGI (HS 578T breast) was 9.48 µM and 8.31 µM, the GI50 (OVCAR-8 ovarian) was 3.28 µM and 2.85 µM and the TGI (OVCAR-8 ovarian) was 12.6 µM and 11.4 µM. The GI50 (U251 CNS) was 3.01 µM and 2.74 µM, the TGI (U251 CNS) was 11.2 µM and 10.5 µM and the GI50 (SK-MEL-2 melanoma) was 2.62 µM and 1.07 µM. For the same compound, the TGI (SK-MEL-2 melanoma) was 5.4 µM and 2.91 µM, the GI50 (SW-620 colon) was 3.32 µM and 3.06 µM and the TGI (SW-620 colon) was 13.2 µM and 12.5 µM. For the same compound, the GI50 (HCT-15 colon) was 3.44 µM and 3.06 µM, the TGI (HCT-15 colon) was 14.8 µM and 12.5 µM and the GI50 (OVCAR-3 ovarian) was 3.66 µM and 2.96 µM. The TGI (OVCAR-3 ovarian) was 11.3 µM and 10.2 µM, the GI50 (A549 NSCLC) was 3.37 µM and 3.03 µM and the TGI (A549 NSCLC) was 11.9 µM and 10.6 µM. For the same compound, the GI50 (SK-OV-3 ovarian) was 2.66 µM, the TGI (SK-OV-3 ovarian) was 7.04 µM and the GI50 (MDA-MB-231 breast) was 2.59 µM and 1.86 µM. The TGI (MDA-MB-231 breast) was 6.07 µM and 4.34 µM, the GI50 (TK-10 renal) was 3.99 µM and the TGI (TK-10 renal) was 11.6 µM. For the same compound, the GI50 (UACC-257 melanoma) was 2.65 µM and 1.94 µM, the TGI (UACC-257 melanoma) was 7.86 µM and 5.71 µM and the GI50 (KM12 colon) was 3.54 µM and 2.93 µM. For the same compound, the TGI (KM12 colon) was 10.7 µM and 10.5 µM, the GI50 (COLO 205 colon) was 2.22 µM and 1.67 µM and the TGI (COLO 205 colon) was 5.23 µM and 3.03 µM. For the same compound, the GI50 (BT-549 breast) was 2.81 µM, the TGI (BT-549 breast) was 8.09 µM and the GI50 (NCI-H522 lung) was 2.49 µM. For the same compound, the TGI (NCI-H522 lung) was 7.03 µM, the GI50 (CCRF-CEM leukemia) was 4.32 µM and 2.83 µM and the TGI (CCRF-CEM leukemia) was 23.4 µM and 25 µM. The GI50 (SF-268 CNS) was 4.4 µM and 3.44 µM, the TGI (SF-268 CNS) was 17.3 µM and 14 µM and the GI50 (SNB-19 CNS) was 4.84 µM and 3.23 µM. For the same compound, the TGI (SNB-19 CNS) was 32.2 µM and 14.2 µM, the GI50 (RXF 393 renal) was 2.84 µM and 2.52 µM and the TGI (RXF 393 renal) was 8.76 µM and 7.65 µM. The GI50 (LOX IMVI melanoma) was 2.93 µM and 3 µM, the TGI (LOX IMVI melanoma) was 11.2 µM and 10.8 µM and the GI50 (NCI-H460 lung) was 2.98 µM and 2.56 µM. For the same compound, the TGI (NCI-H460 lung) was 9.91 µM and 8.1 µM, the GI50 (NCI-H23 lung) was 2.56 µM and 2.34 µM and the TGI (NCI-H23 lung) was 10.8 µM and 7.76 µM. For the same compound, the GI50 (SR leukemia) was 3.09 µM and 4.96 µM, the TGI (SR leukemia) was 13.6 µM and > 100 µM and the GI50 (OVCAR-5 ovarian) was 4.37 µM and 4.04 µM. For the same compound, the TGI (OVCAR-5 ovarian) was 17.9 µM and 14.2 µM, the GI50 (UO-31 renal) was 2.46 µM and 2.02 µM and the TGI (UO-31 renal) was 11.6 µM and 9.32 µM. The GI50 (NCI/ADR-RES ovarian) was 2.92 µM and 2.74 µM, the TGI (NCI/ADR-RES ovarian) was 13.1 µM and 9.29 µM and the GI50 (MDA-MB-435) was 3.42 µM and 2.72 µM. The TGI (MDA-MB-435) was 12.4 µM and 9 µM, the GI50 (T-47D breast) was 3.23 µM and 2.45 µM and the TGI (T-47D breast) was 18 µM and 7.78 µM. The GI50 (HOP-62 NSCLC) was 3.37 µM and 2.17 µM, the TGI (HOP-62 NSCLC) was 14.9 µM and 5.66 µM and the GI50 (MALME-3M melanoma) was 3.32 µM and 2.51 µM. For the same compound, the TGI (MALME-3M melanoma) was 13.7 µM and 6.83 µM, the GI50 (SF-295 CNS) was 2.33 µM and 2.34 µM and the TGI (SF-295 CNS) was 6.47 µM and 6.51 µM. The GI50 (SK-MEL-28 melanoma) was 7.01 µM and 4 µM, the TGI (SK-MEL-28 melanoma) was 21 µM and 14.5 µM and the GI50 (M14 melanoma) was 3.88 µM and 4.02 µM. For the same compound, the TGI (M14 melanoma) was 15.3 µM and 14.5 µM, the GI50 (HL-60(TB) leukemia) was 2.88 µM and 2.72 µM and the TGI (HL-60(TB) leukemia) was 6.5 µM and 7.5 µM. The GI50 (HT29 colon) was 3.71 µM and 2.22 µM, the TGI (HT29 colon) was 10.9 µM and 6.25 µM and the GI50 (A498 renal) was 1.81 µM and 1.87 µM. For the same compound, the TGI (A498 renal) was 5.52 µM and 5.19 µM, the GI50 (RPMI-8226 leukemia) was 3.13 µM and 2.49 µM and the TGI (RPMI-8226 leukemia) was 8.93 µM and 16.8 µM. For the same compound, the GI50 (SF-539 CNS) was 3.46 µM and 3.4 µM, the TGI (SF-539 CNS) was 16.1 µM and 11.8 µM and the GI50 (HOP-92 NSCLC) was 1.65 µM. The TGI (HOP-92 NSCLC) was 4.47 µM and 4.65 µM, the GI50 (CAKI-1 renal) was 2.65 µM and 2.04 µM and the TGI (CAKI-1 renal) was 9.13 µM and 5.93 µM. The GI50 (DU-145 prostate) was 5.01 µM and 4.18 µM, the TGI (DU-145 prostate) was 20.8 µM and 15.5 µM and the GI50 (EKVX NSCLC) was 3.8 µM and 2.51 µM. For the same compound, the TGI (EKVX NSCLC) was 14.1 µM and 9.1 µM, the GI50 (IGROV1 ovarian) was 6.03 µM and 2.97 µM and the TGI (IGROV1 ovarian) was 26.2 µM and 15 µM. The GI50 (MCF7 breast) was 3.06 µM and 2.88 µM, the TGI (MCF7 breast) was 10.5 µM and 10.2 µM and the GI50 (K-562 leukemia) was 3.17 µM and 2.91 µM. The TGI (K-562 leukemia) was 12 µM and 23.5 µM, the GI50 (NCI-H226 lung) was 3.1 µM and 2.26 µM and the TGI (NCI-H226 lung) was 15 µM and 6.76 µM. For the same compound, the GI50 (HCC-2998 colon) was 3.7 µM, the TGI (HCC-2998 colon) was 14.7 µM and the GI50 (MOLT-4 leukemia) was 3.8 µM and 2.55 µM. For the same compound, the TGI (MOLT-4 leukemia) was 11.7 µM and 13.1 µM, the GI50 (SK-MEL-5 melanoma) was 1.84 µM and 1.74 µM and the TGI (SK-MEL-5 melanoma) was 4.04 µM and 4.03 µM. The GI50 (SNB-75 CNS) was 3.47 µM and 2.57 µM and the TGI (SNB-75 CNS) was 14 µM and 7.61 µM.
